The record followed here is the METLIN SMRT retention time set (Domingo-Almenara et al. 2019).

A short description of this series: gradient 5% acetonitrile 3 min, to 50% in 2 min, to 85% in 15 min, held 3 min, 100 µL/min. The note with it: column: Zorbax Extend-C18 2.1 x 50 mm; eluents: water / acetonitrile, 0.1% formic acid. In a few lines:
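Data were gathered over 3 months by HPLC coupled to a quadrupole time-of-flight mass spectrometer, operated in positive and negative ionization mode. Mixtures of ~100 pure standards ran on a Zorbax Extend-C18 column (2.1 × 50 mm, 1.8 μm) at 100 μL/min, with water and acetonitrile each containing 0.1% formic acid and dead and dwell volumes of 40 μL and 900 μL. Retention time was read from adduct peaks picked by computer and checked manually.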
Turning to `CCn1ncc(NC(=O)c2cccc(F)c2)c(N2CCOCC2)c1=O`, the RP-LC retention time was 788 s. The value for `Cc1ccccc1NC(=O)Cc1csc2nc(-c3cccc(Br)c3)cn12` was 948 s; that for `COc1ccc(Cl)cc1NC(=O)Cn1c(N2CCOCC2)nc(C)cc1=O` was 772 s; that for `Cc1nnc2ccc(N3CCN(C(=O)Cc4cccc5ccccc45)CC3)nn12` was 660 s.

For `CCC1CN(C(=O)Nc2cccc(OC)c2)c2ccccc2O1` (stereo unspecified), the RP-LC retention time came out at 945 s. The same measure for `O=C(NCCOc1ccccc1)C(=O)c1c[nH]c2ccccc12`: 886 s; for `O=C(c1ccn[nH]1)N1CC(F)(F)C[C@H]1c1nc(C2CC2)no1`: 712 s; for `Cn1c(N2CCCC(C(=O)NCc3cccc(F)c3)C2)cc(=O)n(C)c1=O` (stereo unspecified): 676 s. The same measure for `CCc1ccccc1S(=O)(=O)N1CCc2nc(-c3ccc(OC)cc3)ncc2C1`: 1150 s; for `CC(C)NC(=O)c1ccc(OCC2CCN(C(=O)c3ccc(F)c(Cl)c3)CC2)cc1`: 922 s; for `COCCCn1c(=O)c2ccccc2n(Cc2nc(-c3ccccc3C)no2)c1=O`: 1020 s.

`CCOc1cc(=O)n2c(c1C(=O)Nc1cccc(SC)c1)CCCC2` showed an RP-LC retention time of 767 s. `CSc1ccc(-c2nc3ccc(C)cn3c2Nc2ccc(C)cc2)cc1` yielded an RP-LC retention time of 819 s.

Consider `NS(=O)(=O)c1ccc(CCNC(=O)c2nc(CCS(=O)(=O)c3ccccc3)no2)cc1`, for which the RP-LC retention time worked out at 692 s.

`Cc1ccnc(NS(=O)(=O)c2ccc(NC(=O)c3ccc(-n4cccn4)nn3)cc2)n1` gave an RP-LC retention time of 686 s.

As for `COc1ccc(-n2cc(C(=O)OCc3cc(=O)n4ccccc4n3)c3ccccc3c2=O)cc1`, the RP-LC retention time worked out at 861 s. On to `O=C(Nc1ccccc1)C1CCCN(c2nc3ccsc3c(=O)n2Cc2ccc(F)cc2)C1` (stereo unspecified), for which the RP-LC retention time stood at 971 s. The value for `CCOC(=O)c1sc(NC(=O)C2CCCCN2S(C)(=O)=O)cc1C` (stereo unspecified) was 807 s; that for `Cc1ccc(CNC(=O)C(=O)NCC(c2ccc3c(c2)CCCN3C)N2CCCC2)cc1` (stereo unspecified) was 746 s; that for `CCN1C=C(C(=O)OCc2ccccc2Cl)C(C)=NS1(=O)=O` was 1010 s. In turn, `CN(C)C(=O)c1ccc2c(c1)nc(CN(C)C(=O)Nc1ccccc1Br)n2C` registered an RP-LC retention time of 618 s. `COc1ccc(Cl)cc1NC(=O)c1c(C)oc2c1C1=NCCN1C=N2` came in with an RP-LC retention time of 674 s.

On to `Cc1cccc(-c2nocc2CCC(=O)O)c1`, for which the RP-LC retention time is 758 s. `Cc1ccc(C)c(NC(=O)C2CCCN2S(C)(=O)=O)c1` (stereo unspecified) came in with an RP-LC retention time of 738 s. The value for `COc1cccc(CNC(=O)NCCc2nc3cccnc3n2C2CCCC2)c1` was 684 s; that for `CCOC(=O)N1CCN(c2cc(C(=O)O)c3cc(NC(=O)c4ccccc4F)ccc3n2)CC1` was 628 s; that for `O=C(CCNc1c(-c2ccccc2)nc2cnccn12)NCc1cccc(F)c1` was 698 s. The value for `CC(C)CCNC(=O)C1(C)CN(S(=O)(=O)c2ccccc2)CC(=O)N1Cc1ccc(F)cc1` (stereo unspecified) was 978 s; that for `COc1ccccc1N1CCN(c2ncccc2-c2nc(-c3ccccc3)no2)CC1` was 1140 s. In the case of `CCN1CCN(CCNC(=O)c2c(N3CCCC3=O)c3cc(OC)ccc3n2C)CC1`, the RP-LC retention time was determined as 592 s. `O=C(c1cc(S(=O)(=O)N2CCCC(C(=O)N3CCc4ccccc4C3)C2)c[nH]1)N1CCCC1` (stereo unspecified) gave an RP-LC retention time of 808 s. As to `Cc1nc(-c2csc(S(=O)(=O)N3CCCC(C(=O)Nc4c(C)cccc4C)C3)c2)no1` (stereo unspecified), the RP-LC retention time came out at 1060 s. Compound `CN(Cc1cccn1C)C(=O)NC1CCCCC1` came in with an RP-LC retention time of 836 s.

Turning to `COCCN1C(=O)[C@H]2CN(S(=O)(=O)c3ccccc3)C[C@H]2C1=O`, the RP-LC retention time was 712 s. `CCCNC(=O)C1CCN(Cc2cc3ccccc3n2Cc2ccccc2)CC1` came in with an RP-LC retention time of 704 s. For the compound `Cc1ccc2nc(-c3ccc(NC(=O)c4cnc5sccn5c4=O)cc3)sc2c1`, the RP-LC retention time was 1110 s.

Take `CCCn1c(=O)sc2cc(S(=O)(=O)N3CCC(C(=O)Nc4cc(C)cc(C)c4)CC3)ccc21`: the RP-LC retention time was found to be 1060 s. The same measure for `CC1CCCN(CCCNC(=O)CCC(=O)N2CCc3c(c(C(=O)N4CCCC4)nn3C)C2)C1` (stereo unspecified): 579 s; for `COc1cc(CCC(=O)N2CCC3(CC2)NCc2ccccc2-n2ccnc23)on1`: 584 s; for `Cc1cccn2cc(C(=O)NCCC(C)C)nc12`: 712 s. On to `COc1ccc(C(=O)NCCc2nc3cccnc3n2C(C)C)cc1`, for which the RP-LC retention time was 649 s. Turning to `COc1ccccc1-n1cc(-c2ccccc2)c2c(NCCN(C)C)ncnc21`, the RP-LC retention time turned out to be 695 s. `Cc1ccc(CN2CCC(CNC(=O)c3sc4ncccc4c3-n3cccc3)C2)cc1` (stereo unspecified) displayed an RP-LC retention time of 707 s. Compound `CCOc1cccc(CN2C[C@@H](CO)[C@H](c3ccncc3)C2)c1` displayed an RP-LC retention time of 546 s. `O=C(C1CCC1)N1CCC(Cc2nc(C3CC3)n[nH]2)CC1`: the RP-LC retention time was 598 s. `O=C(NC1CCCN(c2cc(N3CCCC3)ncn2)C1)c1ccoc1` (stereo unspecified) came in with an RP-LC retention time of 671 s. The same measure for `COC(=O)C1=CN(c2ccc(C(=O)OC)cc2)c2ccccc2S1(=O)=O`: 747 s; for `Cc1ccn2c(Nc3ccccc3C)c(-c3cccc(Cl)c3)nc2c1`: 890 s; for `COc1ccc(OCc2noc(CNC(=O)c3cc(-c4ccco4)on3)n2)cc1`: 832 s. The value for `CCCn1cc(C(=O)NCCCOC)c(S(=O)(=O)N2CCN(c3cccc(Cl)c3)CC2)n1` was 1020 s; that for `Cc1cnc(CC2CCN(C(=O)Nc3ccc4c(c3)OCCO4)C2)n1C1CC1` (stereo unspecified) was 612 s; that for `CCc1nn2c(CNC(=O)Cc3ccc(OC)cc3Cl)c(C)nc2s1` was 670 s. For `Cc1nnc2ccc(NC3CCCC3)nn12`, the RP-LC retention time is 818 s. In turn, `Cn1nc(CNC(=O)c2ccc(Br)cc2)c2ccccc21` gave an RP-LC retention time of 840 s.

`COc1ccc(CCN2C(=O)CC(Sc3ccccc3C(=O)O)C2=O)cc1OC` (stereo unspecified) returned an RP-LC retention time of 703 s. In turn, `Cc1oc(-c2[nH]ncc2C(=O)N2CCOCC2)cc1S(=O)(=O)Nc1cccc(F)c1` registered an RP-LC retention time of 669 s. Regarding `Cc1ccc2c(=O)c3c([nH]c2c1C)CCN(CC(=O)NCc1ccccc1F)C3`, the RP-LC retention time came to 621 s. The value for `CC(C(=O)NCCCN1CCN(C)CC1)n1c(=O)c(C(F)(F)F)nc2ccccc21` (stereo unspecified) was 603 s; that for `Cc1sc(-c2nc(C(C)C)cs2)cc1S(=O)(=O)N1CCN(c2ccccn2)CC1` was 908 s. The same measure for `Cc1ccc(C)c(C(=O)Nc2cccn3c(C)nnc23)c1`: 695 s; for `O=C(c1cn(-c2cc(N3CCSCC3)ncn2)cn1)N1CCN(C2CCCCC2)CC1`: 635 s. For the compound `CN1C(=O)c2cccn2CC1C(=O)NCC1CCCCC1` (stereo unspecified), the RP-LC retention time was 727 s. As to `O=C(Nc1cccc([N+](=O)[O-])c1)c1cc2ccccc2cc1O`, the RP-LC retention time was determined as 1100 s. Compound `Cc1ccccc1Nc1c(-c2ccccc2O)nc2c(C)cccn12` returned an RP-LC retention time of 701 s. The same measure for `CCOc1ccc(NC(=O)Cn2nc3c(Oc4ccccc4C)nccn3c2=O)cc1`: 870 s; for `O=C(NCCc1ccco1)C1CCN(Cc2cc3ccccc3n2Cc2cccc(Cl)c2)CC1`: 813 s. As for `COc1ccc(OCC(=O)N2CCN(Cc3noc4ccccc34)CC2)cc1`, the RP-LC retention time came out at 711 s. The same measure for `CC(C)NC(=O)c1ccc(OCC2CCN(C(=O)Cc3ccccc3F)CC2)cc1`: 870 s; for `O=C(NCC1CCOCC1)c1cccc(Br)c1`: 733 s. Turning to `COc1ccc(-c2noc(C3CCCN3C(=O)c3sccc3C)n2)cc1` (stereo unspecified), the RP-LC retention time came out at 984 s. Compound `Cn1nccc1C(=O)N1CCc2c(c(CO)nn2Cc2ccccc2)C1` gave an RP-LC retention time of 630 s. In turn, `O=C(Nc1ccccc1)C1CCN(S(=O)(=O)c2cc(C(=O)N3CCOCC3)cs2)CC1` showed an RP-LC retention time of 757 s. Consider `CC(C)CN1C(=O)c2cccn2CC1C(=O)NCCN1CCOCC1` (stereo unspecified), for which the RP-LC retention time amounted to 568 s.

Consider `CC1CCCC(NC(=O)CCn2cnc3onc(-c4ccc(F)cc4)c3c2=O)C1C` (stereo unspecified), for which the RP-LC retention time was found to be 1050 s. Regarding `CCOc1ccc(S(=O)(=O)NC2CCN(c3ccc(=O)n(CC4CC4)n3)C2)cc1` (stereo unspecified), the RP-LC retention time came to 834 s. Take `Cc1cccc(N2CCN(c3ncc(C(=O)O)c(C)n3)CC2)c1`: the RP-LC retention time was found to be 945 s. `O=C(Nc1ccc(-n2cnc(C(=O)N3CCc4ccccc4C3)c2)nc1)C1CC1`: the RP-LC retention time was 733 s. In turn, `CCc1ccc(-c2csc(Nc3ccc(F)cn3)n2)cc1` displayed an RP-LC retention time of 1190 s. For the compound `CC(=O)Nc1ccc(SCC(=O)Nc2ccc(OC(F)(F)F)cc2)nn1`, the RP-LC retention time stood at 745 s. With `CCNC(=O)CN1C(=O)CCCc2cc(S(=O)(=O)N3CCC(C)CC3)ccc21`, the RP-LC retention time is 769 s. In turn, `CCOc1cc(C2NC(=O)c3[nH]nc(-c4cccc(OC)c4)c32)ccc1O` (stereo unspecified) showed an RP-LC retention time of 669 s.
